Test results from ChEMBL document CHEMBL1201862, “PubChem BioAssay data set” (2004).
The source made the active and inactive calls.

How the values were obtained:
[1] = target: T1, Sentrin-specific protease 7 (Homo sapiens, UniProt Q9BQF6); assay: SENP7 protease inhibitors, SAR follow-up, biochemical, luminescence (AID 504497); assay type: functional
T1 sequence (Q9BQF6 whole entry): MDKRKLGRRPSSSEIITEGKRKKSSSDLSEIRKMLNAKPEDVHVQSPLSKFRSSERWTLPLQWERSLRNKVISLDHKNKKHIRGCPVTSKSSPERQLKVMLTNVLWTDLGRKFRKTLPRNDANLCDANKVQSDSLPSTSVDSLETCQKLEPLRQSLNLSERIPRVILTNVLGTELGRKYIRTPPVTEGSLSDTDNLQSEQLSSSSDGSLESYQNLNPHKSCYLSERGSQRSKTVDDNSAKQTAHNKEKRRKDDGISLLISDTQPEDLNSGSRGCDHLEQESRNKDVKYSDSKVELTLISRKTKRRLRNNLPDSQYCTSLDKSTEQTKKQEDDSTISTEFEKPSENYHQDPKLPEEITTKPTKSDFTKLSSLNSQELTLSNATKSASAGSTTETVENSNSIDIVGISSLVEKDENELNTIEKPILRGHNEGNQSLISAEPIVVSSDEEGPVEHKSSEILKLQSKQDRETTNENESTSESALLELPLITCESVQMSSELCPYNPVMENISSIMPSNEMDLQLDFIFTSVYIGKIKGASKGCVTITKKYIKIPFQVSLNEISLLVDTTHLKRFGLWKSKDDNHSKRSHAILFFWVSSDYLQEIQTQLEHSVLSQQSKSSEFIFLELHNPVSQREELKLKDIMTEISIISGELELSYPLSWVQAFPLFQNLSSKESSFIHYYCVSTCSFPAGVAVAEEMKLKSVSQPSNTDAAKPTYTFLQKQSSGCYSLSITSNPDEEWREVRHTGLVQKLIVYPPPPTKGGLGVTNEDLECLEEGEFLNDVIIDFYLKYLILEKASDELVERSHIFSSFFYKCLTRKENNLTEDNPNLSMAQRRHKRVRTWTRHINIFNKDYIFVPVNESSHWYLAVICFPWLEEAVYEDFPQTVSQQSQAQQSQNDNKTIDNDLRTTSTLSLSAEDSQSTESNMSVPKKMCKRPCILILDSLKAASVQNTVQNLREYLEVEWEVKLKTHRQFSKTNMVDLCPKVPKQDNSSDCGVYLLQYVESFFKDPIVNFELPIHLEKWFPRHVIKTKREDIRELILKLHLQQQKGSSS

[2] = target: Serine/threonine-protein kinase PAK 4 (Homo sapiens, UniProt O96013); assay type: functional;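 also: value obtained within a kinome profiling panel in which PAK4 was one of the panel members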
[3] = target: Hepatocyte growth factor receptor (Homo sapiens, UniProt P08581); assay type: functional;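 also: kinase panel profiling across the kinome, with MET as the panel member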
[4] = target: Receptor-type tyrosine-protein kinase FLT3 (Homo sapiens, UniProt P36888); assay type: functional;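 also: FLT3 was tested as one member of a kinome-wide kinase panel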
[5] = target: Vascular endothelial growth factor receptor 2 (Homo sapiens, UniProt P35968); assay type: functional
[6] = target: Serine/threonine-protein kinase Nek4 (Homo sapiens, UniProt P51957); assay type: functional
[7] = target: Cytochrome P450 2C9 (Homo sapiens, UniProt P11712)
Sequence of Cytochrome P450 2C9 (P11712 whole entry): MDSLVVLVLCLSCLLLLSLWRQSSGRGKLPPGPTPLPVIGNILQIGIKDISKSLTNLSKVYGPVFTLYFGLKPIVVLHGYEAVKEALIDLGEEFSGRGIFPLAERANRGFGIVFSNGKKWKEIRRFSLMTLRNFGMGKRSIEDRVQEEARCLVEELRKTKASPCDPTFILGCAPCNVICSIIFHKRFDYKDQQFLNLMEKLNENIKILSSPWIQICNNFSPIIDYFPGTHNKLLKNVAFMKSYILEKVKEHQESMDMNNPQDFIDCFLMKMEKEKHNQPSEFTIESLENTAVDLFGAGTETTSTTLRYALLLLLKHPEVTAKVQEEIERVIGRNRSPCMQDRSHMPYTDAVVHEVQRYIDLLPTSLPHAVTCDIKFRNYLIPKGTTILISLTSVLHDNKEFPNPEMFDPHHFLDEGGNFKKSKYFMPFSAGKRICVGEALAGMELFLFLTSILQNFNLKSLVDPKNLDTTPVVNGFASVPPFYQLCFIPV

Sequence of Serine/threonine-protein kinase Nek4 (P51957 whole entry): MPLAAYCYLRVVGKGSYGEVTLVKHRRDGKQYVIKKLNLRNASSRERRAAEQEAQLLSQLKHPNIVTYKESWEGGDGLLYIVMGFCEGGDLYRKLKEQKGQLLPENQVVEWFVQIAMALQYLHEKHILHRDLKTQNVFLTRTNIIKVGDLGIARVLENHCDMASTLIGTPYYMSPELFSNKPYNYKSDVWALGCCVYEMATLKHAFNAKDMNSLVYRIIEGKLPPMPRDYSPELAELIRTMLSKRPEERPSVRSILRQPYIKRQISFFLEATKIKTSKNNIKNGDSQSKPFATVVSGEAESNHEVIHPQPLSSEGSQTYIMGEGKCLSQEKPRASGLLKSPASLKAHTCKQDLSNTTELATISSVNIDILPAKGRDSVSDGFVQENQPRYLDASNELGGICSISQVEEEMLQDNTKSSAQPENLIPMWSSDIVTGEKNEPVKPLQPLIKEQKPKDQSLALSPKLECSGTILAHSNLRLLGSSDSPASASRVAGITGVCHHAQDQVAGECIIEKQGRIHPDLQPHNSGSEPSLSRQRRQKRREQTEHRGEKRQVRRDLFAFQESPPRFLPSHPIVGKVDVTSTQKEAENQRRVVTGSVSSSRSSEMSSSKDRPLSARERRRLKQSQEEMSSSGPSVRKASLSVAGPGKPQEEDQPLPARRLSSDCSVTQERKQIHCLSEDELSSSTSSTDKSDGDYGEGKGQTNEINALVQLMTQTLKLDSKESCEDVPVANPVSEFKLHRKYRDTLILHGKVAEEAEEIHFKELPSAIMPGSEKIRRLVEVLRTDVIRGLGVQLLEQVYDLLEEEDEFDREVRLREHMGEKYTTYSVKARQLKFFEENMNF
Sequence of Serine/threonine-protein kinase PAK 4 (O96013 whole entry): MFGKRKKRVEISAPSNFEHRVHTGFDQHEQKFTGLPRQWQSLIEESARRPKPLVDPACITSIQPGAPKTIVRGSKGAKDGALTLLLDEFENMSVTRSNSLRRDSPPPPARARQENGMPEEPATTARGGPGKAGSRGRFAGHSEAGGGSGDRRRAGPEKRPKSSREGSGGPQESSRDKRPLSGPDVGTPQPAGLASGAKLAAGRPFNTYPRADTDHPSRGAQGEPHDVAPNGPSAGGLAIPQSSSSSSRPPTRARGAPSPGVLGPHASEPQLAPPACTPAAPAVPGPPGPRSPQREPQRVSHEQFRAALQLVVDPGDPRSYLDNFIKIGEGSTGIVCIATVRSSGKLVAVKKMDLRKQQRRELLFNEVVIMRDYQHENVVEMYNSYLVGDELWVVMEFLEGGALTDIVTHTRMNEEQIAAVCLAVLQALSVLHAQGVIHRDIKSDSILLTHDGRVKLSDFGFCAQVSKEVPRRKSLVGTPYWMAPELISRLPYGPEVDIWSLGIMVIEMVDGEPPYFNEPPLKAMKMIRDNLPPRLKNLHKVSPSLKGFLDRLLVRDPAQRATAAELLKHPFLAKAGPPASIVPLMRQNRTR
Sequence of Receptor-type tyrosine-protein kinase FLT3 (P36888 whole entry): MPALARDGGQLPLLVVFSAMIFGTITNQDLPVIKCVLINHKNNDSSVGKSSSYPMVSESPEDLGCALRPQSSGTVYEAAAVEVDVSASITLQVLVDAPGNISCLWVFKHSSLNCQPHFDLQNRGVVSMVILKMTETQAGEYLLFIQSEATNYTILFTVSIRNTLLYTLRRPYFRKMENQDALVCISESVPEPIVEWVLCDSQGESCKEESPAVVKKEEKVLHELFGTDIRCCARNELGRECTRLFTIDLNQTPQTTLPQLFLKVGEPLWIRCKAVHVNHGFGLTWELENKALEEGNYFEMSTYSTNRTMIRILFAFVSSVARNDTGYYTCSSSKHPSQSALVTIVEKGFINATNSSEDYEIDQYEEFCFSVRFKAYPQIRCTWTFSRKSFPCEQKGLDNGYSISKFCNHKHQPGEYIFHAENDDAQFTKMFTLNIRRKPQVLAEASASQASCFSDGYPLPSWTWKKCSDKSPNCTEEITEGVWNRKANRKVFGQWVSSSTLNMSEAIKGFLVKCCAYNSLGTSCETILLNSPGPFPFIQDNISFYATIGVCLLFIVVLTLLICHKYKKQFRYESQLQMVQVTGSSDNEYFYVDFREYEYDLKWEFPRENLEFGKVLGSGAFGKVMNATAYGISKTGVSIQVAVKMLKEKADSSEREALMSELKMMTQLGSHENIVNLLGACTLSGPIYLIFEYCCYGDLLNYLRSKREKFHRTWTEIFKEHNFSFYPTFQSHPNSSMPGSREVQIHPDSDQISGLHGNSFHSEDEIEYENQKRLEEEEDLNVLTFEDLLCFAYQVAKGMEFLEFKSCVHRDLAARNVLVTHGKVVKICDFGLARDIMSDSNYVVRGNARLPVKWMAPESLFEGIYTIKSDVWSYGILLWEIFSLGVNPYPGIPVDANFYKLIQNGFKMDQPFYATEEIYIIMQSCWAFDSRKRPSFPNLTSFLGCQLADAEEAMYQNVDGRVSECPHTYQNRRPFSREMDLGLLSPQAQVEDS
Sequence of Vascular endothelial growth factor receptor 2 (P35968 whole entry): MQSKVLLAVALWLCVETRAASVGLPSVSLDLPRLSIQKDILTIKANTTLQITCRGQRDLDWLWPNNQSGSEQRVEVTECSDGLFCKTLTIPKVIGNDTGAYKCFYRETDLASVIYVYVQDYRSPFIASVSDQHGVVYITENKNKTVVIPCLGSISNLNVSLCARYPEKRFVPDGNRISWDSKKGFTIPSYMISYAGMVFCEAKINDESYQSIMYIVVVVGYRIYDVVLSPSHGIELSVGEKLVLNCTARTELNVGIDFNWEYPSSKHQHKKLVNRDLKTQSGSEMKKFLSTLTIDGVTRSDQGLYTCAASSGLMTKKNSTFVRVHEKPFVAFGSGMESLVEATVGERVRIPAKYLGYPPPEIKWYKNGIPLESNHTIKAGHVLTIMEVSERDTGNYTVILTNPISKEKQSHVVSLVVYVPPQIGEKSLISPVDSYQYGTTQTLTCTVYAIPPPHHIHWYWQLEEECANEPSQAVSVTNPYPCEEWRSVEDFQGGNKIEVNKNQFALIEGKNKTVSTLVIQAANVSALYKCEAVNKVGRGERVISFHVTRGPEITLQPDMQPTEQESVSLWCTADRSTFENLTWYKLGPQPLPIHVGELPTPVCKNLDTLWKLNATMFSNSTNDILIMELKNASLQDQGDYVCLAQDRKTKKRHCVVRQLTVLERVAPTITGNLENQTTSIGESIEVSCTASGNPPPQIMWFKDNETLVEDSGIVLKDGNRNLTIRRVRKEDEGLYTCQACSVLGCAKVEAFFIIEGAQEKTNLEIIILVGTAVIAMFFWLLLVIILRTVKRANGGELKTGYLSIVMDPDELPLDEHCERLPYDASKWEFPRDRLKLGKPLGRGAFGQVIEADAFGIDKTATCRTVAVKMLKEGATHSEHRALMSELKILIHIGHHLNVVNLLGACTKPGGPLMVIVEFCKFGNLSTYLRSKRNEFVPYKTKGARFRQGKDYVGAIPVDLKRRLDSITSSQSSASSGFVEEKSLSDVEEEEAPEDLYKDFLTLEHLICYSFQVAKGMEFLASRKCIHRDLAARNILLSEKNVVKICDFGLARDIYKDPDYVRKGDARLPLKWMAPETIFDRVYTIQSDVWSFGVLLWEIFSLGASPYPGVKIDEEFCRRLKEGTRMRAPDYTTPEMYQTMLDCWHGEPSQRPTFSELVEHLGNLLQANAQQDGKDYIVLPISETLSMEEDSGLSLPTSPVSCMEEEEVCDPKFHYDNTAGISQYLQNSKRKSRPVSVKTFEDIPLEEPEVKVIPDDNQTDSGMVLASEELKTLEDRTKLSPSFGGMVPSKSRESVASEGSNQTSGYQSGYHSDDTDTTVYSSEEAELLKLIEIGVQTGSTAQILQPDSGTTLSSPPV

| SMILES | IC50 [1] | Ki [2] | Ki [3] | Ki [4] | Ki [5] | Ki [6] | AC50 [7] |
| --- | --- | --- | --- | --- | --- | --- | --- |
| COc1ccc(C(C[N+](=O)[O-])c2c(C)[nH]n(-c3ccccc3)c2=O)cc1 (configuration not stated) | 12300 nM (active) | – | – | – | – | – | – |
| Oc1c2ccccc2c2c3c(cccc13)N=N2 [SP-600125] | – | > 5010 nM (inactive) | 501 nM (active) | 50.1 nM (active) | 631 nM (active) | 1000 nM (active) | inconclusive |
